Source: patent EP3666770A1, “NOVEL HETEROCYCLIC COMPOUNDS AS CDK8/19 INHIBITORS” (Joint Stock Company "Biocad", priority 2017, dated 2019)
Like-named read-outs stand apart in the source and are kept apart here.

Assays:
[1] = Chemical stability in simulated gastric fluid (SGF); format: physicochemical; details: SGF without enzymes, pH=1,4; 10 µm; 2 hours at 37°C; substance amount in % after thermostatting
Procedure: (§1) Chemical stability of the compounds described herein was determined in simulated gastric fluid and human blood plasma.
SGF concentrate without enzymes, pH=1,4 (Sigma Ireland, cat#01651) was used as simulated gastric fluid. Initial candidate solution (10 mM in DMSO) was diluted with an SGF working solution to a concentration of […] (test solution). The test solution was incubated in a dry block thermostat for 2 hours at 37°C. HPLC with Agilent 1200 liquid chromatography system (Agilent, USA) was employed to determine peak areas of the compounds in test samples, said peak areas corresponding to the initial test time (prior to incubation) and the final test time (after incubation in a dry block thermostat for 2 hours at 37°C). Chromatographic analysis was performed in a gradient elution regime with a flow rate of 1 mL/min. Substance amount in % in a sample after thermostatting was determined.

[2] = Chemical stability in human blood plasma; format: in vitro ADME; details: pooled human blood plasma; 10 µM; 4 hours at 37°C; substance amount in % after thermostatting
Procedure: as §1
Determination of stability in human blood plasma was performed using pooled human blood plasma taken from ten healthy donors. The initial candidate solution (10 mM in DMSO) was diluted with pooled blood plasma to a concentration of […] (test solution). The test solution was incubated in a dry block thermostat for 4 hours at 37°C. HPLC with Agilent 1200 liquid chromatography system (Agilent, USA) was employed to determine peak areas of the compounds in test samples, said peak areas corresponding to the initial test time (prior to incubation) and the final test time (after incubation in a dry block thermostat for 4 hours at 37°C), proteins were preliminarily precipitated with acetonitrile. Chromatographic analysis was performed in a gradient elution regime with a flow rate of 1 mL/min. Substance amount in % in a sample after thermostatting was determined.

[3] = Enzyme stability in human liver microsomes; format: in vitro ADME; details: pH 7.4; 0,5 mg/mL pooled human liver microsomes; 10 µM compound; 37°C; pH=7,4
Procedure: Measuring of candidates' enzyme stability enabled estimation of the stability of the present compounds towards the action of enzymes in liver microsomes.
Enzyme degradation rate was measured by incubating the reaction mixture in a dry block thermostat at 37°C, said reaction mixture comprising 0,5 mg/mL of pooled human liver microsomes (XenoTech, USA, cat#H2620), 10 µM compound, 2 mM β-nicotinamide adenine dinucleotide (Carbosynth, UK, cat#NN10871) and 4 mM magnesium chloride in 0,1 M sodium-phosphate buffer, pH=7,4. The reaction was quenched with acetonitrile (100 µL of acetonitrile / 100 µL of the reaction mixture). After quenching, the samples were centrifuged at 10000 rpm for 10 minutes. Supernatant fluid was tested by chromatographic technique using Agilent1200 (Agilent, USA). Chromatographic analysis was performed in a gradient elution regime with a flow rate of 1 mL/min. A graph of the logarithm of substance's peak area as a function of time was made. The dependent factor of the line corresponded to the elimination rate constant K based on which the drug's half-life t1/2 and degradation rate CLint were calculated: Elimination rate constant (k) = (−gradient) [formula] [formula] V(μL/mg) = (volume of incubation(μL))/(protein in the incubation(mg)) [formula] [formula]

[4] = Permeability through Caco-2 cell monolayer; format: in vitro ADME; details: human, Caco-2; for Papp A→B at 2 h, 10 µM: A->B transfer, pH 6.5 -> pH 7.4, 2 hours at 37 °C; for efflux ratio at 2 h, 10 µM: efflux = Papp B-A / Papp A-B
Procedure: Estimation of permeability through Caco-2 cell monolayer enables assessment of the ability of the substances to penetrate through biological membranes by means of both active and passive transport.
Intestinal epithelial cells Caco-2 were grown on filter inserts (pore size 0.4 µm, BD Falcon with High Density) for 21 days; monolayer integrity was then checked using Lucifer Yellow (Sigma-Aldrich, USA) according to the standard protocol. In A->B transfer ("intestinal lumen" - "blood stream" transfer), solutions of the test substances in buffer, pH 6.5 (HBSS, 10 mM HEPES, 15 mM glucose) at a concentration of 10 µM were added to the upper chamber; whereas the lower chamber was filled with buffer, pH 7.4 (HBSS, 10 mM HEPES, 15 mM Glucose, 1% BSA). In B->A transfer ("blood stream" - "intestinal lumen" transfer), the upper chamber was filled with buffer, pH 6.5, whereas the solutions of the test substances in buffer, pH 7.4, at a concentration of 10 µM were added to the lower chamber. A highly permeable substance propranolol was used as a control.
After 2 hours incubation at 37 ° C under an atmosphere containing 5% CO2, the amounts of the test substances in the upper and lower chambers were measured by HPLC using an Agilent1200 HPLC system (Agilent, USA), proteins were preliminarily precipitated with acetonitrile. Chromatographic analysis was performed in a gradient elution regime with a flow rate of 1 mL/min. The peak areas corresponding to the compounds were detected on chromatograms.
The value was calculated using the formula: efflux = Papp B−A /Papp A−B , [formula] where • Papp A-E - the value of permeability direct analysis A→ B; • Papp B-A - the value of the permeability of the reverse analysis B→ A.

MV4-11 = assay: Cell-based antiproliferative test (AlamarBlue), MV4-11; details: 120 h incubation, average values of several tests, read-out: MV-4-11 IC50, mkM
Procedure: (§2) Antiproliferative activity of CDK8 inhibitors according to the present invention was measured in a cell-based test on continuous cell cultures MV4-11 (biphenotypic myelomonocytic leukemia, ATCC® CRL-9591™), KG-1 (acute myeloid leukemia, ATCC® CCL-246™), HL-60 (acute promyelocytic leukemia, ATCC® CCL-240™) using a vital stain AlamarBlue (ThermoFisher, #DAL1100). The cells were grown in RPMI-1640 (PanEco, #C330p) medium with addition of 10% FBS (Gibco, #16140-071); washed and resuspended in culture medium with 10% FBS (Gibco, #16140-071) in 96-well culture plates (Corning, #3599) with ≈ 10 ×10^3 cells in […] of medium per well. The compounds in question were dissolved in DMSO and diluted with a medium with 10% FBS (Gibco, #16140-071) to a final concentration ranging form 0 to 100 µM. […] of diluted compounds were then added to each well (final DMSO concentration was less than 1%) and incubated under 5% CO2 atmosphere at 37°C for 120 h. After incubating, 15 µL of AlamarBlue (ThermoFisher, #DAL1100) reagent was added per well, contents of plates were mixed in an orbital shaker (Biosan, Latvia) and further incubated for 3-5 h at 37°C under 5% CO2 atmosphere. Number of living cells was estimated using a microplate spectrophotometer (Tecan Infinite M200Pro, Switzerland) measuring fluorescent signal at the excitation wavelength (λEx) of 540 nm and emission wavelength (λEm) of 590 nm.
(§3) IC50 was calculated using Magellan 7.2 software (Tecan, Switzerland) approximating experimental points by four-parameter logistic model with the optimization by Levenberg-Marquardt (table 7, table 7).

[5] = General cytotoxicity test on HepG2 cells; format: cell-based; details: human, HepG2 cells; 72 h incubation; 200 to 0.78 µM; average values of several tests; read-out: Hep-G2 CC50, mkM
Procedure: Cell viability was assessed using the above method. Table 6. […] The results are presented as average values of activity obtained in several tests.

KG-1 = assay: Cell-based antiproliferative test (AlamarBlue), KG-1; details: 120 h incubation, average values of several tests, read-out: KG-1 IC50, mkM
Procedure: as §2, §3

| SMILES | Stability in SGF, % [1] [%] | Stability in blood plasma, % [2] [%] | microsomal CLint at 10 µM [3] [µL/min/mg] | Papp A→B at 2 h, 10 µM [4] [×10⁻⁶ cm/s] | efflux ratio at 2 h, 10 µM [4] | IC50 (MV4-11; Homo sapiens, MV4-11, 120 h) [nM] | CC50 at 72 h [5] [nM] | IC50 (KG-1; Homo sapiens, KG-1) [nM] | IC50 (MV4-11) [nM] | IC50 (KG-1) [nM] |
| --- | --- | --- | --- | --- | --- | --- | --- | --- | --- | --- |
| O=C(c1cccnc1)c1c[nH]c2ncc(-c3ccc(N4CCOCC4)c(O)c3)cc12 [CDK8-4-7, (5-(3-Hydroxy-4-morpholinophenyl)-1H-pyrrolo[2,3-b]pyridin-3-yl) (pyridin-3-yl) methanone] | 99.1 | 93.8 | 23.2 | 64.5 | 0.34 | 390 | > 200000 |  |  |  |
| COc1cc(-c2cnc3[nH]cc(C(=O)c4ccccn4)c3c2)ccc1N1CCOCC1 [CDK8-4-23, (5-(3-Methoxy-4-morpholinophenyl)-1H-pyrrolo[2,3-b]pyridin-3-yl) (pyridin-2-yl) methanone] | 100 | 87.4 | 12.8 | 36.9 | 0.14 | 100 | > 100000 |  |  |  |
| CN(C)c1ccc(-c2cnc3[nH]cc(C(=O)c4cccnc4)c3c2)cc1O [CDK8-4-5] | 99.2 | 100 | 26.6 | 87.6 | 0.12 | 620 | 7700 |  |  |  |
| O=C(c1ccncc1)c1c[nH]c2ncc(-c3ccc(N4CCOCC4)c(O)c3)cc12 [CDK8-4-11, (5-(3-Hydroxy-4-morpholinophenyl)-1H-pyrrolo[2,3-b]pyridin-3-yl) (pyridin-4-yl) methanone] | 98.1 | 88.5 | 15 | 13.9 | 1.54 | 1330 | > 200000 |  |  |  |
| CN1CCN(C(=O)c2cnc3c(N)ncc(-c4ccc(-c5cnn(C)c5)cc4)c3c2)CC1 [CDK8-3-31, (8-Amino-5-(4-(1-methyl-1H-pyrazol-4-yl)phenyl)-1,7-naphthyridin-3-yl)(4-methylpiperazin-1-yl) methanone] |  |  |  |  |  |  |  | 2 |  |  |
| O=C(c1ccccn1)c1c[nH]c2ncc(-c3ccc(N4CCOCC4)cc3)cc12 [CDK8-4-36, (5-(4-Morpholinophenyl)-1H-pyrrolo[2,3-b]pyridin-3-yl) (pyridin-2-yl)methanone] | 100 | 100 |  |  |  | 460 | 17000 | 1590 |  |  |
| COc1ccc(-c2cnc3[nH]cc(C(=O)c4ccncc4)c3c2)cc1 [CDK8-4-33, (5-(4-Methoxyphenyl)-1H-pyrrolo[2,3-b]pyridin-3-yl) (pyridin-4-yl)methanone] | 100 | 100 | 21.2 | 13.4 | 1.5 | 19700 | > 100000 |  |  |  |
| Cn1cc(-c2ccc(-c3cnc(N)c4ncc(C(=O)NC5CC5)cc34)cc2)cn1 [CDK8-3-38, 8-Amino-N-cyclopropyl-5-(4-(1-methyl-1H-pyrazol-4-yl)phenyl)-1,7-naphthyridine-3-carboxamide] |  |  |  |  |  |  |  | < 10 |  |  |
| CN(C)c1ccc(-c2cnc3[nH]cc(C(=O)c4cccnc4)c3c2)c(C#N)c1 [CDK8-4-26, 5-(Dimethylamino)-2-(3-nicotinoyl-1H-pyrrolo[2,3-b]pyridin-5-yl)benzonitrile] | 100 | 100 | 17.6 |  |  | 1280 | > 100000 |  |  |  |
| CN1CCN(C(=O)c2cnc3cncc(-c4ccc(N(C)C)cc4)c3c2)CC1 [CDK8-3-8, (5-(4-(Dimethylamino)phenyl)-1,7-naphthyridin-3-yl)(4-methylpiperazin-1-yl) methanone] | 95.4 | 98 | 18 |  |  | 7520 | > 200000 |  |  |  |
| O=C(c1ccnc2ccc(-c3ccc(-c4cn[nH]c4)cc3)cc12)N1CCCCC1 [CDK8-5-4, (6-(4-(1H-Pyrazol-4-yl)phenyl)quinolin-4-yl) (piperidin-1-yl)methanone] | 99.9 | 100 | 37 |  |  | 9560 | 66100 |  |  |  |
| COC1CN(C(=O)c2cnc3c(N)ncc(-c4ccc(-c5cnn(C)c5)cc4)c3c2)C1 [CDK8-3-34, (8-Amino-5-(4-(1-methyl-1H-pyrazol-4-yl)phenyl)-1,7-naphthyridin-3-yl)(3-methoxyazetidin)methanone] |  |  |  |  |  |  |  | 5 |  |  |
| Cn1cc(-c2ccc(-c3cncc4ncc(C(=O)NC5CC5)cc34)cc2)cn1 [CDK8-3-37] |  |  |  |  |  |  |  |  | 22 | 4 |
| O=C(C1CN(c2cc(F)c3ncn(-c4ccc(-c5cn[nH]c5)cc4)c3c2)C1)N1CCOCC1 [CDK8-1-8, (1-(1-(4-(1H-Pyrazol-4-yl)phenyl)-4-fluoro-1H-benzo[d]imidazol-6-yl)azetidin-3-yl)(morpholino)methanone] | 100 | 97.8 | 23.4 | 19.7 | 2.9 | 3920 | > 200000 |  |  |  |
